# From ChEMBL document CHEMBL1152560, “Substituted 2-arylbenzothiazoles as kinase inhibitors: hit-to-lead optimization” (Bioorg Med Chem, 2009)
# How the values were obtained:
# [1] = molecular target: Cyclin-dependent kinase 7/ cyclin H (Homo sapiens) (UniProt P51946+P50613); test: Residual activity of CDK7/CyclinH/MAT1 at 1 uM by microplate scintillation counting; format: protein-complex assay
# [2] = molecular target: Serine/threonine-protein kinase MARK2 (Homo sapiens) (UniProt Q7KZI7); test: Residual activity of MARK2 at 1 uM by microplate scintillation counting
# [3] = molecular target: T1, Serine/threonine-protein kinase Nek2 (Homo sapiens) (UniProt P51955); test: Residual activity of NEK2 at 1 uM by microplate scintillation counting
# T1 sequence (whole entry): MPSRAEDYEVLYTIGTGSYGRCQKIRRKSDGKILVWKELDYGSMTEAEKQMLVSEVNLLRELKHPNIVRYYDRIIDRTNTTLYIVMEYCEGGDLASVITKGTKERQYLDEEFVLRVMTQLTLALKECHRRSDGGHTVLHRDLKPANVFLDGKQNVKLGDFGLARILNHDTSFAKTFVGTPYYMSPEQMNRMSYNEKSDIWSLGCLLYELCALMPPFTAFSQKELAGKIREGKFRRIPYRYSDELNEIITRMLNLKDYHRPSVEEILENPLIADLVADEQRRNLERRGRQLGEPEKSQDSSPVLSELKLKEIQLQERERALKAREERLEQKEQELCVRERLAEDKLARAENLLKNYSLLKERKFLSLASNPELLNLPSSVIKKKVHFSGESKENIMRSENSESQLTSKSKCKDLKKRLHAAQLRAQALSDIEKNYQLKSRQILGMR
# [4] = molecular target: Platelet-derived growth factor receptor beta (Homo sapiens, UniProt P09619); test: Residual activity of PDGFRbeta at 1 uM by microplate scintillation counting
# Platelet-derived growth factor receptor beta, sequence (P09619 whole entry): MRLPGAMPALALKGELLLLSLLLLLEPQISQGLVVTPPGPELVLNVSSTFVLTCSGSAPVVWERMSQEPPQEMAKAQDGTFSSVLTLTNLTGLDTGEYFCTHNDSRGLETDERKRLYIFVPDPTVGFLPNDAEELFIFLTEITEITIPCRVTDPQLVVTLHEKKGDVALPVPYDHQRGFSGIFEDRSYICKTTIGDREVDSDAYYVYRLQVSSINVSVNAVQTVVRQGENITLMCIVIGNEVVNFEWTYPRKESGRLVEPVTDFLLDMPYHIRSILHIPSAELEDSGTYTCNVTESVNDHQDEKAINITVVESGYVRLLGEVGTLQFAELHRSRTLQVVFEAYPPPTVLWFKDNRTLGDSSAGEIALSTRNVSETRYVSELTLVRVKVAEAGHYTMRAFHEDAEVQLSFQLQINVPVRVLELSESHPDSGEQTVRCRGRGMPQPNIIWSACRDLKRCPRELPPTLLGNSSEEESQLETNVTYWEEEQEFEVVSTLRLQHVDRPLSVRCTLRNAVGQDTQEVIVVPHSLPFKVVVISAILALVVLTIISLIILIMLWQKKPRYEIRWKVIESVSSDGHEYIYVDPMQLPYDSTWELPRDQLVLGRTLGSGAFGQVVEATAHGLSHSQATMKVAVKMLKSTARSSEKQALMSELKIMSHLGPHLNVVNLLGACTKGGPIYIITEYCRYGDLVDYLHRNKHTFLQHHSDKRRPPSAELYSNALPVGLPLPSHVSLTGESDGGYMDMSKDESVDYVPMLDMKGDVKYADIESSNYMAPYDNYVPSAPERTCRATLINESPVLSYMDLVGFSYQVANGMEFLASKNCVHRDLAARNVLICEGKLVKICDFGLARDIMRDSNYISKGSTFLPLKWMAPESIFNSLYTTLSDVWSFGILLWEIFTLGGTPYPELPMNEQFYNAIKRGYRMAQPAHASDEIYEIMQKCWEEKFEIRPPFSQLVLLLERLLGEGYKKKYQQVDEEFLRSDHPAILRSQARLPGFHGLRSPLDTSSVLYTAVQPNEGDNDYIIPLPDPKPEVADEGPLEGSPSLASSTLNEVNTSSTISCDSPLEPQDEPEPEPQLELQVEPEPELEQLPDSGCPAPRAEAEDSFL
# [5] = molecular target: Rho-associated protein kinase 2 (Homo sapiens) (UniProt O75116); test: Residual activity of ROCK2 at 1 uM by microplate scintillation counting
# [6] = molecular target: High affinity nerve growth factor receptor (Homo sapiens) (UniProt P04629); test: Residual activity of TRK-A at 1 uM by microplate scintillation counting
# High affinity nerve growth factor receptor (Homo sapiens), sequence (P04629 33-796 limits assumed): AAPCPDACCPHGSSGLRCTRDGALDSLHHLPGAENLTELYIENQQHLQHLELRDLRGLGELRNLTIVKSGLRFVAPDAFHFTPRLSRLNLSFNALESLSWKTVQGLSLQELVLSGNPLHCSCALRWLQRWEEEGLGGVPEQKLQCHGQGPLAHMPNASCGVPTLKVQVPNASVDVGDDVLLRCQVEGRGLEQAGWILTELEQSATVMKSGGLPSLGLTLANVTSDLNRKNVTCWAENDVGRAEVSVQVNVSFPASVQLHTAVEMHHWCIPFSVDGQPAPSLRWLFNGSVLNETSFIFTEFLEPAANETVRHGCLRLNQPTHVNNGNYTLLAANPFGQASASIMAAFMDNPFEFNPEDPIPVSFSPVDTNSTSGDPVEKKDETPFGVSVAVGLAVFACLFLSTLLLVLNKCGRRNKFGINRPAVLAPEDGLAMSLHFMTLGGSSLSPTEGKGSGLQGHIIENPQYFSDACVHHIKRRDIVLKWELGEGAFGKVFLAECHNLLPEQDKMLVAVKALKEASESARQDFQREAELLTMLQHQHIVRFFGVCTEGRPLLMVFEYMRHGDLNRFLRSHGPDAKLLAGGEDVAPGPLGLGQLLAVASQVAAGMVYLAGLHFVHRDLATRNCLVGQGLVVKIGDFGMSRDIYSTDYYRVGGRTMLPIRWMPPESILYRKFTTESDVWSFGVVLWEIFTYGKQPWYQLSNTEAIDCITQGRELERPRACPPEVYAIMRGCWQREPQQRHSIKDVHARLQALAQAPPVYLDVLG
# [7] = molecular target: T2, Testis-specific serine/threonine-protein kinase 2 (Homo sapiens) (UniProt Q96PF2); test: Residual activity of TSK2 at 1 uM by microplate scintillation counting
# T2 sequence (whole entry): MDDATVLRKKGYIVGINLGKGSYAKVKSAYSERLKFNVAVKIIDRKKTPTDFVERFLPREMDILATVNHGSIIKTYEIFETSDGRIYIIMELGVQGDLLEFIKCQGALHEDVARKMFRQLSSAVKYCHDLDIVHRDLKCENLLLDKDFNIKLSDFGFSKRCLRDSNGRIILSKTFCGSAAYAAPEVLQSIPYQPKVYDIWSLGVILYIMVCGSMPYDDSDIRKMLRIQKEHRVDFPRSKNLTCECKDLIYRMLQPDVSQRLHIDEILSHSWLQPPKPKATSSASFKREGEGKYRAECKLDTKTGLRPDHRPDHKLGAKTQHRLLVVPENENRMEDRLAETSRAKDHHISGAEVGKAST
# [8] = molecular target: Serine/threonine-protein kinase WNK3 (Homo sapiens) (UniProt Q9BYP7); test: Residual activity of WNK3 at 0.1 uM by microplate scintillation counting
# [9] = system: Serine/threonine-protein kinase B-raf (Homo sapiens), P15056 [V600E]; test: Residual activity of B-RAF V600E mutant at 10 uM by microplate scintillation counting
# [10] = molecular target: MAP kinase-activated protein kinase 3 (Homo sapiens) (UniProt Q16644); test: Residual activity of MAPKAPK3 at 10 uM by microplate scintillation counting
# MAP kinase-activated protein kinase 3 (Homo sapiens), sequence (Q16644 whole entry, looked up): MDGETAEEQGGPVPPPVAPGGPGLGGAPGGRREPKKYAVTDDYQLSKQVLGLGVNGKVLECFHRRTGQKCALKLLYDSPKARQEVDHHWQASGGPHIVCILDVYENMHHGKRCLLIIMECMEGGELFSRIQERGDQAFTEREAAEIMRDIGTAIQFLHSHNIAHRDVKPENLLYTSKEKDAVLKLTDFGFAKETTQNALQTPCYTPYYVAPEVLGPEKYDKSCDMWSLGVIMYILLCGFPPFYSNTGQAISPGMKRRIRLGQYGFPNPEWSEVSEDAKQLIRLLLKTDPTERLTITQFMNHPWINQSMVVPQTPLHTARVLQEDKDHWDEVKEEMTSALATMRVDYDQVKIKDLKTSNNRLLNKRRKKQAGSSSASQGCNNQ
# [11] = molecular target: Serine/threonine-protein kinase MARK1 (Homo sapiens) (UniProt Q9P0L2); test: Residual activity of MARK1 at 10 uM by microplate scintillation counting
# Serine/threonine-protein kinase MARK1 (Homo sapiens), sequence (Q9P0L2 whole entry, looked up): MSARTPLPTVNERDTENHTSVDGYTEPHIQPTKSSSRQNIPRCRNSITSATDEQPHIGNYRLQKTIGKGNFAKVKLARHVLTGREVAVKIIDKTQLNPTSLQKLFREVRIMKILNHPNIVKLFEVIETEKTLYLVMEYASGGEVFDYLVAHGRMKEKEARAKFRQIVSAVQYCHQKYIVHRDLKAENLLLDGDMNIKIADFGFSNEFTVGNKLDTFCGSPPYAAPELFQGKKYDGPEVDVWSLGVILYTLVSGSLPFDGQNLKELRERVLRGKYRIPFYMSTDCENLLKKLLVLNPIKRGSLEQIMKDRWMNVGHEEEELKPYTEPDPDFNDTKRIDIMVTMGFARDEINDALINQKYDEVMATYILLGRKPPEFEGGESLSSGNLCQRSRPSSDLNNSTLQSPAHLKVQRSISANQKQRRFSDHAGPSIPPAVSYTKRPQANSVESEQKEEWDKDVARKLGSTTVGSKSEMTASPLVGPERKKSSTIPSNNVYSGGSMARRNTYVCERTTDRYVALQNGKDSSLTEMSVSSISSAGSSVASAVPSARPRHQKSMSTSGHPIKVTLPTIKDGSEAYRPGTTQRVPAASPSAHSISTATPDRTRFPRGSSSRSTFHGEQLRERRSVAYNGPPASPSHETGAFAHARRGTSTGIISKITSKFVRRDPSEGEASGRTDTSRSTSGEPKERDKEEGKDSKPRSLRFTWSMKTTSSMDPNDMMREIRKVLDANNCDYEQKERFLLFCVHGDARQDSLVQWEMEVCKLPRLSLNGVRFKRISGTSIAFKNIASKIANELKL
# [12] = molecular target: MAP/microtubule affinity-regulating kinase 3 (Homo sapiens) (UniProt P27448); test: Residual activity of MARK3 at 10 uM by microplate scintillation counting
# MAP/microtubule affinity-regulating kinase 3 (Homo sapiens), sequence (P27448 whole entry, looked up): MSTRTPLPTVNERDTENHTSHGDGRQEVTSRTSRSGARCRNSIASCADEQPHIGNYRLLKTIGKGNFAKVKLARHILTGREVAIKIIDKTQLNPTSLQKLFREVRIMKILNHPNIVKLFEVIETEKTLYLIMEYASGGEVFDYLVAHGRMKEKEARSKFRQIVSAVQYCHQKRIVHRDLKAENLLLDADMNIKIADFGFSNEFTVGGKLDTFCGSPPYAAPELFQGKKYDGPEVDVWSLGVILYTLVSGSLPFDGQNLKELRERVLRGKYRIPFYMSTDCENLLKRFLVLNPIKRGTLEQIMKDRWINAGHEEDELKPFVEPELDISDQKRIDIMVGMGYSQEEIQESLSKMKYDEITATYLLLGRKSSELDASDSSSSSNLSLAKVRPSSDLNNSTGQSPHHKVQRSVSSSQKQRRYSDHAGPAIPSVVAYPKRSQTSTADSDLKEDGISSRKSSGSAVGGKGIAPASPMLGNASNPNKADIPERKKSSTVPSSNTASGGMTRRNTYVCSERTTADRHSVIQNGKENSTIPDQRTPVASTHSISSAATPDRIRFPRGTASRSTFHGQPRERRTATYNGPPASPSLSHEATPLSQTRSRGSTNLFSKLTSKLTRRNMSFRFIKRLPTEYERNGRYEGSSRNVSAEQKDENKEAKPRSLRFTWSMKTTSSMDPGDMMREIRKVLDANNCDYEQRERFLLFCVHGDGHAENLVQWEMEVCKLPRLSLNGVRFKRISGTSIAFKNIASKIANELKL
# [13] = system: Tyrosine-protein kinase ABL1 (Homo sapiens), P00519 [T315I]; test: Residual activity of ABL1 T315I mutant at 0.1 uM by microplate scintillation counting
# [14] = molecular target: CDK8/Cyclin C (Homo sapiens) (UniProt P49336+P24863); test: Residual activity of CDK8/Cyclin C at 0.1 uM by microplate scintillation counting; format: protein-complex assay
# [15] = molecular target: Casein kinase I isoform delta (Homo sapiens) (UniProt P48730); test: Residual activity of CK1delta at 0.1 uM by microplate scintillation counting
# Casein kinase I isoform delta (Homo sapiens), sequence (P48730 whole entry, looked up, canonical isoform): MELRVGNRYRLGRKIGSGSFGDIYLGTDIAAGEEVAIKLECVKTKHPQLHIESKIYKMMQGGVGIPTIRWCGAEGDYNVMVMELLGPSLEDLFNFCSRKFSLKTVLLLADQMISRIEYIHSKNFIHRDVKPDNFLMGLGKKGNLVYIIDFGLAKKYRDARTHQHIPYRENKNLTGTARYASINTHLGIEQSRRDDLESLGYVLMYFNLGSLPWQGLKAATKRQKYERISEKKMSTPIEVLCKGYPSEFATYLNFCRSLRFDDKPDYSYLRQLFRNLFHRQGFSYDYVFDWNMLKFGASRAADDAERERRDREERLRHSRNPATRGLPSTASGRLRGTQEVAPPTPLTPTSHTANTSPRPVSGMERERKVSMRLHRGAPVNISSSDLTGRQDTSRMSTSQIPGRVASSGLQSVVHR
# [16] = molecular target: T3, Serine/threonine-protein kinase D2 (Homo sapiens) (UniProt Q9BZL6); test: Residual activity of PRKD2 at 0.1 uM by microplate scintillation counting
# T3 sequence (whole entry): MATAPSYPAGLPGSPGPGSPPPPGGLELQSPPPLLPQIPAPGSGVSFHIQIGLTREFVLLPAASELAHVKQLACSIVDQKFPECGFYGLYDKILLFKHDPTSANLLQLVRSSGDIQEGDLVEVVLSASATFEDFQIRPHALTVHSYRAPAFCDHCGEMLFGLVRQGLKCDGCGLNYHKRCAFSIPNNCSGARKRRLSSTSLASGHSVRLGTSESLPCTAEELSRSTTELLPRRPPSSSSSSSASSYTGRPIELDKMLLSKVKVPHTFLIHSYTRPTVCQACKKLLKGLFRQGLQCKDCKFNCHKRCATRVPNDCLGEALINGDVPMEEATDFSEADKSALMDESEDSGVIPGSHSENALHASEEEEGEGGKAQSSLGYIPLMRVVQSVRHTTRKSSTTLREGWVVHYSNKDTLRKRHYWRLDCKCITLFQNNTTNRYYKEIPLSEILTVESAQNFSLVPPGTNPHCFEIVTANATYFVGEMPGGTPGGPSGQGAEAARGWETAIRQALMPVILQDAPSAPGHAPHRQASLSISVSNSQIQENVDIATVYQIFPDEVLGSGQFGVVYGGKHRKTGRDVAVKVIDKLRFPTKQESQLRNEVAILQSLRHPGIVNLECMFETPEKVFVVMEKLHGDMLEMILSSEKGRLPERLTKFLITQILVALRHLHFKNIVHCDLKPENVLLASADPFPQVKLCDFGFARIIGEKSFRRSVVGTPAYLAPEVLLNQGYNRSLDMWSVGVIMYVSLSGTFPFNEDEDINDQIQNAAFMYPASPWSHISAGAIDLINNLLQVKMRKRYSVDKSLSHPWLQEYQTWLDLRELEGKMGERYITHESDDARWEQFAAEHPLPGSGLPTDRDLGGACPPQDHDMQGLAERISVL
# [17] = molecular target: Ribosomal protein S6 kinase alpha-1 (Homo sapiens) (UniProt Q15418); test: Residual activity of RPS6KA1 at 0.1 uM by microplate scintillation counting
# Ribosomal protein S6 kinase alpha-1 (Homo sapiens), sequence (Q15418 whole entry): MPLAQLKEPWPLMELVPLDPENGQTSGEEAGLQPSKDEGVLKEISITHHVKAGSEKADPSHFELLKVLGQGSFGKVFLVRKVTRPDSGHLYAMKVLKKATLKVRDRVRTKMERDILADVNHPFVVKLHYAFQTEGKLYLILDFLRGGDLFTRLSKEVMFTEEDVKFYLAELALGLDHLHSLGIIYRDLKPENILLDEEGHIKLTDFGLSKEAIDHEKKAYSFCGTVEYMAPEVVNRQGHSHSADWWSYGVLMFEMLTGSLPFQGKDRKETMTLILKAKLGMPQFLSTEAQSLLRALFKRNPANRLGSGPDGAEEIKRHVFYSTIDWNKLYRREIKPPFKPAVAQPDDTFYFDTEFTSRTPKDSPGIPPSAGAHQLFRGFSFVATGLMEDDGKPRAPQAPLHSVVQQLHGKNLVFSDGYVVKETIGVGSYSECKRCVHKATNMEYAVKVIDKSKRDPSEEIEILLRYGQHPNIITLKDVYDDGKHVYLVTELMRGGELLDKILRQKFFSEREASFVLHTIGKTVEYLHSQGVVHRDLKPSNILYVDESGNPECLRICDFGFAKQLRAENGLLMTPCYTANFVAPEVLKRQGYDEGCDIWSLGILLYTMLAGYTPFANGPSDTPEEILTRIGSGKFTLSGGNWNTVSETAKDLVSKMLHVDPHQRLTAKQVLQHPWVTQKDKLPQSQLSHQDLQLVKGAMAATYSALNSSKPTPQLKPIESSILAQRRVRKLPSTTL
# [18] = molecular target: NT-3 growth factor receptor (Homo sapiens) (UniProt Q16288); test: Residual activity of TRK-C at 10 uM by microplate scintillation counting
residual activity [1] [%],residual activity [2] [%],residual activity [3] [%],residual activity [4] [%],residual activity [5] [%],residual activity [6] [%],residual activity [7] [%],residual activity [8] [%],residual activity [9] [%],residual activity [10] [%],residual activity [11] [%],residual activity [12] [%],residual activity [13] [%],residual activity [14] [%],residual activity [15] [%],residual activity [16] [%],residual activity [17] [%],residual activity [18] [%],SMILES
77,86,89,78,93,72,108,94,58,67,112,108,98,94,95,89,79,166,COc1cc2c(Oc3ccc(-c4nc5ccccc5s4)cc3)ncnc2cc1OCCCN1CCCC1
87,87,89,88,93,86,98,84,81,42,112,104,100,79,98,95,86,132,COc1cc2c(Oc3ccc(-c4nc5ccccc5s4)cc3F)ncnc2cc1OCCCN1CCN(C)CC1
94,74,81,78,101,83,92,90,57,41,124,107,96,87,94,82,81,188,COc1cc2c(Oc3ccc(-c4nc5ccccc5s4)cc3)ncnc2cc1OCCCN1CCN(C)CC1
